The values below come from US6417235B2, “Method and use of α-amino-β-mercapto-ethane derivatives as dicarbonyl scavengers for treatment of conditions resulting from protein, lipid, and DNA damage” (University of Kentucky Research Foundation, priority 2000, dated 2002).

Where only a bound is given, the exact number is not on record here.

Data set [1] can be described thus: Alpha-dicarbonyl trapping followed by HPLC. How it is done: Phenylglyoxal (10 mM) and D-penicillamine (20 mM) were reacted in 50 mM KH2PO4 buffer, pH 7.4 at room temperature. The progress of he reaction was monitored by HPLC analysis of reaction aliquots at 254 nm. After 40 minutes reaction time more than 90% conversion of the phenylglyoxal peak into a single product peak of higher retention time was observed. […] UV detection was at 254 nm. As shown by the HPLC analysis of the reaction system shown in FIG. 7, phenyglyoxal is fully reacted with D-penicillamine within 5 minutes. […] The reaction kinetics were studied at a phenylglyoxal concentration of […] and at 250 and 500 micromolar carbonyl scavenger concentration (D-penicillamine, aminoguanidine). Over the course of the reaction, aliquots were analyzed by HPLC. In the case of D-penicillamine, which required shorter sampling periods, reaction aliquots were taken every 20 seconds, and kept on dry ice until analysis. The initial reaction rates of phenylglyoxal with the test compounds were monitored by following the disappearance of phenylglyoxal over time. […] The measured first order rate constant (kst) was then used to calculate the second order rate constant (by applying the following equation: […]-carbonyl scavenger}. The calculated second order rate constants determined at the two reactant ratios were in good agreement.

A further data set has as its system HaCat cells. Put plainly: Protection of keratinocytes from alpha-dicarbonyl stress (cell count after 72 hour exposure). The format is cell-based, human. How it is done:
(§1) A continuous cell line of human epidermal keratinocytes (HaCat cells) and human dermal fibroblasts (CF-3 cells) were routinely cultured in 75 cm^2 flasks and split biweekly in DMEM containing 10% fetal bovine serum and kept in a humidified atmosphere containing 5% CO2 at 37° C. Human keratinocytes were split using 5% trypsin and human fibroblasts employed 1% trypsin. All experiments were carried out on 6 well dishes (Falcon USA), where keratinocytes were seeded at 2×10^4 cells/well and fibroblasts at 4×10^4 cells/well. Cells were left overnight to attach to the plate and the appropriate carbonyl scavenger was then added 15 minutes prior to the addition of the alpha-dicarbonyl stress compounds glyoxal or methylglyoxal. Following 72 hour exposure to the stress compound, cells were counted with a Coulter counter. the protective effects of the alpha-dicarbonyl scavengers were assessed by comparing the growth of untreated cells with cells exposed to alpha-carbonyl stress +/− test compound.

The next data set deals with ΦX-174 DNA. Put plainly: AGE-BSA photosensitized cleavage of ΦX-174 DNA under solar simulated light. The format is biochemical. As to conditions: solar simulated light, AGE-BSA as photosensitizer. How it is done:
Glycated Proteins as Photosensitizers of DNA Damage in Skin Photoaging. D-Penicillamine inhibits genotoxic consequences of AGE-photosensitization. Accumulation of AGEs on dermal elastin and collagen occurs during normal skin aging in humans. The hypothesis was tested that the intra- and extracellular accumulation of the complex yellow-brown AGE-chromophores contributes to skin aging and carcinogenesis induced by chronic exposure to sunlight. As a possible molecular mechanisms for a detrimental synergism of AGE-formation and exposure to sunlight, photosensitized DNA damage by AGEs was assessed in a simple in vitro system. Irradiation of covalently closed circular ΦX-174 DNA with increasing doses of solar simulated light (SSL) in the presence of AGE-BSA was used to detect photosensitized DNA nicking as a measure of DNA photodamage (panel A). […] Addition of several antioxidants modulated the photosensitization effect (panel C).

The test system of the next data set is CF-3 cells. Put plainly: Protection of fibroblasts from alpha-dicarbonyl stress (cell count after 72 hour exposure). The format is cell-based, human. As for the experimental part:
as §1

Another data set concerns HaCat keratinocytes. Put plainly: AGE-photosensitization of human skin cells, growth inhibition under solar simulated light. The settings on record: 10 mM.

Protocol for HaCat keratinocytes: Human HaCat keratinocytes growing on 35 mm dishes were exposed to solar simulated light (1.2 kJ/m^2 UVB and 23 kJ/m^2 UVA) in the presence or absence of AGE-BSA as a model of a protein with advanced glycation endproducts. Control populations were treated in exactly the same way as described above, but were not exposed to solar simulated light (SSL).

On to `CC(C)(S)[C@@H](N)C(=O)O` [D-Penicillamine], for which the “time until phenylglyoxal is fully reacted” value in data set [1] (HPLC analysis, FIG. 7) was not above 5 min. Moreover, in data set [1] (phenylglyoxal 10 mM, D-penicillamine 20 mM, pH 7.4, room temperature, after 40 minutes), the “conversion of the phenylglyoxal peak into a single product peak” value was “more than 90%”. The “protection from alpha-dicarbonyl stress” value in the data set with HaCat cells (FIG. 14) and in the data set with CF-3 cells (FIG. 14) was “protection” each time. For the same compound, the “protection from methylglyoxal induced alpha-dicarbonyl stress” value in the data set on HaCat cells (FIG. 15) and in the data set on CF-3 cells (FIG. 15) was “protection” throughout. The “effect on AGE-BSA photosensitized DNA cleavage” value with ΦX-174 DNA is “inhibited the photosensitization effect of AGE-BSA in a dose dependent relationship”. In the data set with HaCat keratinocytes, the “toxic effects on HaCat cells” value was “no toxic effects”. Moreover, in the data set with HaCat keratinocytes (AGE-BSA with SSL), the “reversal of the photosensitization effect” value is recorded as “completely reversed the photosensitization effect”.
